Results on eleven molecules are retold here after patent US8455484B2, “Selected inhibitors of protein tyrosine kinase activity” (MethylGene Inc., priority 2010, dated 2013).

Where only a bound is given, the exact number is not on record here.

Test [1] concerns VEGF-induced retinal vascular permeability. Put plainly: VEGF-induced retinal vascular permeability in rabbits. The test is classed as in vivo, Dutch rabbits. The following applies: intravitreal injection, human VEGF165 500 ng, 30 min after fluorescein injection, vs vehicle-treated group. The protocol: This test measured the capacity of compounds to inhibit VEGF-induced retinal vascular permeability. Vascular permeability is the cause of severe vision loss in patients suffering from age-related macular degeneration (AMD). Female Dutch rabbits (˜2 kg; Kitayama LABES CO., LTD, Nagano, Japan) were anesthetized with pentobarbital and topically with 0.4% oxybuprocaine hydrochloride. Test articles or vehicle were injected into vitreous cavity after the dilation of the pupils with 0.5% tropicamide eye drop. Recombinant human VEGF165 (500 ng; Sigma-Aldrich Co., St Louis, Mo.) was injected intravitreously 48 hr prior to the measurement of vitreous fluorescein concentration. Rabbits were anesthetized with pentobarbital and sequentially injected sodium fluorescein (2 mg/kg) via the ear vein. Pupils were dilated with 0.5% tropicamide eye drop, and ocular fluorescein levels were measured using the FM-2 Fluorotron Master (Ocumetrics, Mountain View, Calif.) 30 min after fluorescein injection. The fluorescein concentrations in vitreous were obtained at data points that are 0.25 mm apart from posterior-end along an optical axis. Vitreous fluorescence concentration was considered fluorescein leakage from retinal vasculature. The average fluorescence peaks of the test article treated groups were compared with that of the vehicle-treated group.

A further test concerns the target T1, VEGFR2 (KDR) (Homo sapiens, UniProt P35968).
T1 construct: made in house; host or cells: Sf9 cells (Spodoptera frugiperda), baculovirus
Put plainly: In vitro receptor tyrosine kinase assay (VEGF receptor KDR), DELFIA. It counts as biochemical. The following applies: recombinant GST-VEGFR2 catalytic domain, ATP 0.6 uM, enzyme 5 nM; read-out: VEGFR IC50. From the text:
This test measures the ability of compounds to inhibit the enzymatic activity of recombinant human VEGF receptor enzymatic activity.
A 1.6-kb cDNA corresponding to the catalytic domain of VEGFR2 (KDR) (Genbank accession number AF035121 amino acid 806 to 1356) is cloned into the Pst I site of the pDEST20 Gateway vector (Invitrogen) for the production of a GST-tagged version of that enzyme. This constuct is used to generate recombinant baculovirus using the Bac-to-Bac™ system according to the manucfacturer's instructions (Invitrogen).
The GST-VEGFR2806-1356 protein is expressed in Sf9 cells (Spodoptera frugiperda) upon infection with recombinant baculovirus construct. Briefly, Sf9 cells grown in suspension and maintained in serum-free medium (Sf900 II supplemented with gentamycin) at a cell density of about 2×10^6 cells/ml are infected with the above-mentioned viruses at a multiplicity of infection (MOI) of 0.1 during 72 hours at 27° C. with agitation at 120 rpm on a rotary shaker. Infected cells are harvested by centrifugation at 398 g for 15 min. Cell pellets are frozen at −80° C. until purification is performed.
All steps described in cell extraction and purification are performed at 4° C. Frozen Sf9 cell pellets infected with the GST-VEGFR2806-1356 recombinant baculovirus are thawed and gently resuspended in Buffer A (PBS pH 7.3 supplemented with 1 μg/ml pepstatin, 2 μg/ml Aprotinin and leupeptin, 50 μg/ml PMSF, 50 μg/ml TLCK and 10 μM E64 and 0.5 mM DTT) using 3 ml of buffer per gram of cells. Suspension is Dounce homogenized and 1% Triton X-100 is added to the homogenate after which it is centrifuged at 22500 g, 30 min., 4° C. The supernatant (cell extract) is used as starting material for purification of GST-VEGFR2806-1356.
The supernatant is loaded onto a GST-agarose column (Sigma) equilibrated with PBS pH 7.3. Following a four column volume (CV) wash with PBS pH 7.3+1% Triton X-100 and 4 CV wash with buffer B (50 mM Tris pH 8.0, 20% glycerol and 100 mM NaCl), bound proteins are step eluted with 5 CV of buffer B supplemented with 5 mM DTT and 15 mM glutathion. GST-VEGFR2806-1356 enriched fractions from this chromatography step are pooled based on U.V. trace i.e. fractions with high O.D.280. Final GST-VEGFR2806-1356 protein preparations concentrations are about 0.7 mg/ml with purity approximating 70%. Purified GST-VEGFR2806-1356 protein stocks are aliquoted and frozen at −80° C. prior to use in enzymatic assay.
Inhibition of VEGFR/KDR is measured in a DELFIA™ assay (Perkin Elmer). The substrate poly(Glu4, Tyr) is immobilized onto black high-binding polystyrene 96-well plates. The coated plates are washed and stored at 4° C. During the assay, the enzyme is pre-incubated with inhibitor and Mg-ATP on ice in polypropylene 96-well plates for 4 minutes, and then transferred to the coated plates. The subsequent kinase reaction takes place at 30° C. for 10-30 minutes. ATP concentrations in the assay are 0.6 uM for VEGFR/KDR (2× the Km). Enzyme concentration is 5 nM. After incubation, the kinase reactions are quenched with EDTA and the plates are washed. Phosphorylated product is detected by incubation with Europium-labeled anti-phosphotyrosine MoAb. After washing the plates, bound MoAb is detected by time-resolved fluorescence in a Gemini SpectraMax reader (Molecular Devices). Compounds are evaluated over a range of concentrations, and IC50 values (concentration of compounds giving 50% inhibition of enzymatic activity) are determined.

The next test deals with CNV progression. In words: In vivo choroidal neovascularization (CNV) model. Further details: species or system Brown-Norway rats. To be noted: injection into right eye on Day 3, CNV area on Day 10, vs vehicle-treated group. The text has this:
This test measures the capacity of compounds to inhibit CNV progression. CNV is the main cause of severe vision loss in patients suffering from age-related macular degeneration (AMD).
Male Brown-Norway rats (Japan Clea Co., Ltd.) were used in these studies.
Rats were anesthetized by intraperitoneal injection of pentobarbital, and the right pupil was dilated with 0.5% tropicamide and 0.5% phenylephrine hydrochloride. The right eye received 6 laser burns between retinal vessels using a slit lamp delivery system of Green laser Photocoagulator (Nidex Inc., Japan), and microscope slide glass with Heaton™ (AMO Inc) used as a contact lens. The laser power was 100 or 200 mW for 0.1 second and spot diameter was 100 μm. At the time of laser burn, bubble production was observed, which is an indication of rupture of Bruch's membrane which is important for CNV generation.
Rats were divided into the groups based on their body weight using SAS software (SAS institute Japan, R8.1) after laser irradiation (Day 0). After animals were anesthetized, and the right pupil dilated (as above mentioned), the right eye of the animal received the compound or vehicle by an injection (10 μL/eye) at doses of 10 or 3 nmol/eye on Day 3. The compounds were dissolved or suspended in CBS, PBS, or other adequate vehicles before injection.
On Day 10, the animals were anesthetized with ether, and high molecular weight fluorescein isothiocyanate (FITC)-dextran (SIGMA, 2×10^6 MW) was injected via a tail vein (20 mg/rat). About 30 min after FITC-dextran injection, animals were euthanized by ether or carbon dioxide, and the eyes were removed and fixed with 10% formaline neutral buffer solution. After over 1 hour of fixation, RPE-choroid-sclera flat mounts were obtained by removing cornea, lens and retina from the eyeballs. The flat mounts were mounted in 50% glycerol on a microscope slide, and the portion burned by laser was photographed using a fluorescence microscope (Nikon Corporation, excitation filter:465-495 nm, absorption filter:515-555 nm). The CNV area was obtained by measurement of hyper-fluorescence area observed on the photograph using Scion image.
The average CNV area of 6 burns was used as an individual value of CNV area, and the average CNV area of compound treated group was compared with that of the vehicle-treated group.

By IC50 is commonly meant the concentration that gives 50% inhibition.

T1 sequence (P35968 806-1356): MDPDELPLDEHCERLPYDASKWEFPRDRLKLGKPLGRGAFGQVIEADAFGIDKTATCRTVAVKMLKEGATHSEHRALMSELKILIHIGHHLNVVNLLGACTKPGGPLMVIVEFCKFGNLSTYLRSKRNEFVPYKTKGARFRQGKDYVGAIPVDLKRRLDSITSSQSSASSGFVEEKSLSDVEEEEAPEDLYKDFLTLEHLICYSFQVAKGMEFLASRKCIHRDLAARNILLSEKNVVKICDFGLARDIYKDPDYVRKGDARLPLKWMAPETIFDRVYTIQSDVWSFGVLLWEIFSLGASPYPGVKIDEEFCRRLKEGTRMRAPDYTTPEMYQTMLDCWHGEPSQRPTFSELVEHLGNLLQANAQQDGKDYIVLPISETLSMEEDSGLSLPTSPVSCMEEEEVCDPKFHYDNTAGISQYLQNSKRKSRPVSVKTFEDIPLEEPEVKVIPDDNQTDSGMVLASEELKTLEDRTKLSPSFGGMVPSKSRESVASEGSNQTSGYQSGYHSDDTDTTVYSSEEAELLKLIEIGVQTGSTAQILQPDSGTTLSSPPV

Consider `COCCN(Cc1ccc(-c2cc3nccc(Oc4ccc(NC(=O)NC5CC5)c(F)c4F)c3s2)nc1)C(C)=O` [Compound 26, N-((6-(7-(4-(3-cyclopropylureido)-2,3-difluorophenoxy)thieno[3,2-b]pyridin-2-yl)-pyridin-3-yl)methyl)-N-(2-methoxyethyl)acetamide], for which the “inhibition of the leakage of fluorescein (vitreous fluorescein concentration)” value in test [1] is given as “significant inhibition”. Further, the half-inhibitory concentration (IC50) at VEGFR2 (KDR) is under 50 nM. Besides, the “Inhibition of CNV progression” value in the test on CNV progression (3 nmol/eye) is recorded as “B (≧40% to <60% inhibition)”; in the test with CNV progression (10 nmol/eye), “A (greater than or equal to 60% inhibition)”.

For `CN1CCN(C2CCN(C(=O)c3ccc(-c4cc5nccc(Oc6ccc(NC(=O)NC7CC7)cc6F)c5s4)nc3)CC2)CC1` [Compound 234, 1-Cyclopropyl-3-(3-fluoro-4-(2-(5-(4-(4-methylpiperazin-1-yl)piperidine-1-carbonyl)pyridin-2-yl)thieno[3,2-b]pyridin-7-yloxy)phenyl)urea], the IC50 on VEGFR2 (KDR) is under 50 nM. Besides, the “Inhibition of CNV progression” value in the test on CNV progression (3 nmol/eye) is listed as “B (≧40% to <60% inhibition)”.

With `CN(CCO)CCn1cc(-c2cc3nccc(Oc4ccc(NC(=O)NC5CC5)cc4F)c3s2)cn1` [Compound 151, 1-cyclopropyl-3-(3-fluoro-4-(2-(1-(2-((2-hydroxyethyl)(methyl)amino)ethyl)-1H-pyrazol-4-yl)thieno[3,2-b]pyridin-7-yloxy)phenyl)urea], the IC50 at VEGFR2 (KDR) is under 50 nM.

Consider `CC(C)[C@H](N)C(=O)OCC(=O)N1CCN(Cc2ccc(-c3cc4nccc(Oc5ccc(NC(=O)NC6CC6)cc5F)c4s3)nc2)CC1` [Compound 80, (S)-2-(4-((6-(7-(4-(3-cyclopropylureido)-2-fluorophenoxy)thieno[3,2-b]pyridin-2-yl)pyridin-3-yl)methyl)piperazin-1-yl)-2-oxoethyl 2-amino-3-methylbutanoate], for which the IC50 at VEGFR2 (KDR) is under 50 nM.

Regarding `O=C(Nc1ccc(Oc2ccnc3cc(-c4ccc(CN5CCN(C(=O)CO)CC5)cn4)sc23)c(F)c1)NC1CC1` [Compound 74, 1-cyclopropyl-3-(3-fluoro-4-(2-(5-((4-(2-hydroxyacetyl)piperazin-1-yl)methyl)pyridin-2-yl)thieno[3,2-b]pyridin-7-yloxy)phenyl)urea], the “inhibition of the leakage of fluorescein (vitreous fluorescein concentration)” value in test [1] was “significant inhibition”. At VEGFR2 (KDR), the IC50 was under 50 nM. In addition, the “Inhibition of CNV progression” value in the test with CNV progression (3 nmol/eye) and in the test on CNV progression (10 nmol/eye) was “A (greater than or equal to 60% inhibition)” throughout.

As to `COCCN(Cc1cnc(-c2cc3nccc(Oc4ccc(NC(=O)NC5CC5)cc4F)c3s2)n1C)C(=O)CO` [Compound 209, N-((2-(7-(4-(3-cyclopropylureido)-2-fluorophenoxy)thieno[3,2-b]pyridin-2-yl)-1-methyl-1H-imidazol-5-yl)methyl)-2-hydroxy-N-(2-methoxyethyl)acetamide], the IC50 at VEGFR2 (KDR) was under 50 nM.

Take “1-((2-(7-(4-Isopropylaminocarbonylamino-2-fluorophenoxy)thieno[3,2-b]pyrid methyl-1H-imidazol-5-yl)methyl)-3-isopropyl-1-(2-methoxyethyl)urea [Compound 192]”: the IC50 at VEGFR2 (KDR) lay in the range of 50 to 100 nM. Also, the “Inhibition of CNV progression” value with CNV progression (3 nmol/eye) is on record as “B (≧40% to <60% inhibition)”.

In the case of `CCNC(=O)N(CCOC)Cc1ccc(-c2cc3nccc(Oc4ccc(NC(=O)NC5CC5)cc4F)c3s2)nc1` [Compound 2, N-[3-((6-(7-(4-(3-cyclopropylureido)-2-fluorophenoxy)thieno[3,2-b]pyridin-2-yl)pyridin-3-yl)methyl)]-N-(1-ethyl)-N-[3-(2-methoxyethyl)]urea], the IC50 on VEGFR2 (KDR) was under 50 nM. Further, the figures for the “Inhibition of CNV progression” value with CNV progression (3 nmol/eye) and in the test on CNV progression (10 nmol/eye) were “B (≧40% to <60% inhibition)” and “A (greater than or equal to 60% inhibition)”, respectively.

Turning to `O=C(Nc1ccc(Oc2ccnc3cc(-c4cn(CCN5CCOCC5)cn4)sc23)c(F)c1)NC1CC1` [Compound 265], at VEGFR2 (KDR), the IC50 is under 50 nM.

Take `COCCN(C=O)Cc1ccc(-c2cc3nccc(Oc4ccc(NC(=O)NC5CC5)cc4F)c3s2)nc1` [Compound 6, N-((6-(7-(4-(3-cyclopropylureido)-2-fluorophenoxy)thieno[3,2-b]pyridin-2-yl)pyridin-3-yl)methyl)-N-(2-methoxyethyl)formamide]: the IC50 on VEGFR2 (KDR) was under 50 nM. In addition, the “Inhibition of CNV progression” value was “B (≧40% to <60% inhibition)” in the test with CNV progression (3 nmol/eye) and “A (greater than or equal to 60% inhibition)” in the test on CNV progression (10 nmol/eye).

Consider `CS(=O)(=O)CCNCc1ccc(-c2cc3nccc(Oc4ccc(NC(=O)NC5CC5)cc4F)c3s2)nc1` [Compound 100, 1-cyclopropyl-3-(3-fluoro-4-(2-(5-((2-(methylsulfonyl)ethylamino)methyl)pyridin-2-yl)thieno[3,2-b]pyridin-7-yloxy)phenyl)urea], for which the IC50 at VEGFR2 (KDR) was under 50 nM.
